Test results as given in patent US10293055B2, “Acetylenedicarboxyl linkers and their uses in specific conjugation of a cell-binding molecule” (SUZHOU M-CONJ BIOTECH CO., LTD., priority 2015, dated 2019).

Legend:
[1] = test system: HL-60, a human promyelocytic leukemia cell line; conditions: read-out: IC50 (nM) HL60 cell (Ag+); MTT, 120 hours incubation
Protocol: (§1) The cell lines used in the cytotoxicity assays were HL-60, a human promyelocytic leukemia cell line; NCI-N87, a human gastric carcinoma cell line; BT-474, a human invasive ductal carcinoma cell line; and SKOV3, a human ovarian carcinoma cell line. For HL-60, NCI-N87, and BT-474 cells, the cells were grown in RPMI-1640 with 10% FBS. For SKOV3 cells, the cells were grown in McCoy's 5A Medium with 10% FBS. To run the assay, the cells (180 μl, 6000 cells) were added to each well in a 96-well plate and incubated for 24 hours at 37° C. with 5% CO2. Next, the cells were treated with test compounds (20 μl) at various concentrations in appropriate cell culture medium (total volume, 0.2 mL). The control wells contain cells and the medium but lack the test compounds. The plates were incubated for 120 hours at 37° C. with 5% CO2. MTT (5 mg/ml) was then added to the wells (20 μl) and the plates were incubated for 1.5 hr at 37° C. The medium was carefully removed and DMSO (180 μl) was added afterward. After it was shaken for 15 min, the absorbance was measured at 490 nm and 570 nm with a reference filter of 620 nm. The inhibition % was calculated according to the following equation: inhibition %=[1-(assay-blank)/(control-blank)]×100.

[2] = test system: NCI-N87, a human gastric carcinoma cell line
Protocol: as §1

[3] = test system: SKOV3, a human ovarian carcinoma cell line
Protocol: as §1

[4] = test system: human gastric carcinoma N-87 cell line tumor xenograft; conditions: one injection
Protocol: Five-week-old female BALB/c Nude mice (24 animals) were inoculated subcutaneously in the area under the right shoulder with N-87 carcinoma cells (5×10^6 cells/mouse) in 0.1 mL of serum-free medium. The tumors were grown for 8 days to an average size of 130 mm^3. The animals were then randomly divided into 4 groups (6 animals per group). The first group of mice served as the control group and was treated with the phosphate-buffered saline vehicle. […] Three dimensions of the tumor were measured every 4 days and the tumor volumes were calculated using the formula tumor volume=½ (length×width×height). The weight of the animals was also measured at the same time. A mouse was sacrificed when any one of the following criteria was met: (1) loss of body weight of more than 20% from pretreatment weight, (2) tumor volume larger than 1500 mm^3, (3) too sick to reach food and water, or (4) skin necrosis. A mouse was considered to be tumor-free if no tumor was palpable.

## T-DM1
[1]
  IC50: > 15 nM
[2]; IC50 HL60 / IC50 N87
  Specificity for N87 cell: over 55
[2]; read-out: IC50 (nM) N87 cell (Ag+), MTT, 120 hours incubation
  IC50: 0.27 nM
[3]; IC50 HL60 / IC50 SK-OV-3
  Specificity for SK-OV-3 cell: over 78
[3]; read-out: IC50 (nM) SK-OV-3 cell (Ag+), MTT, 120 hours incubation
  IC50: 0.191 nM
[4]; 5 mg/Kg intravenously, 6 animals per group
  Animals with no tumor measurable: 2/6
[4]; 5 mg/kg, i.v.
  Anti-tumor effect (FIG. 11): did not completely eliminate the tumor
  Duration of tumor growth inhibition: 44 days
